Test results from US8178552B2, “7-Azaindole derivatives and their use in the inhibition of c-Jun N-terminal kinase” (Eisai R&D Management Co., Ltd., priority 2008, dated 2012).
Each block holds one compound with its values, some of them ahead of it.

Columns and labels:
panel of 100 kinases = experiment: Selectivity against a panel of 100 kinases (Upstate/Millipore), expressed as Gini coefficient; assay type: biochemical; conditions: calculated from remaining activity at 1 micromolar compound, 10 micromolar ATP, 0 = non-selective, 1 = perfect selectivity
Protocol: Inhibitory potency of compounds (I) at a concentration of 1 micromolar and with ATP concentration of 10 micromolar was determined at Upstate/Millipore against a panel of 100 kinases representing all major families within the kinome. The results are presented in Table 3 and are expressed as percentage of remaining activity.
For comparison purposes Table 4 contains the relevant inhibitory data for reference compounds A-K containing a (hetero)aromatic ring at C(5) of the 7-azaindole system.
Selectivity of compounds according to the present invention and reference compounds expressed as Gini coefficient (J. Med. Chem. 2007, 50, 5773-5779) is shown in Table 5. The individual Gini coefficients have been calculated using the data in Tables 3 and 4. Value Gini=0 corresponds to a totally non-selective compound; value Gini=1 reflects perfect selectivity (inhibition of a single target only)

JNK3 = JNK3 (Homo sapiens, UniProt P53779); experiment: JNK3 SPA assay; assay type: biochemical; conditions: 3.33 μM ATP, GST-c-Jun substrate; read-out: IC50 against JNK3
How it was run: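 Radiometric SPA using GST-c-Jun with [γ-33P]ATP in 25 mM HEPES pH 7.5 and 10 mM Mg acetate; the substrate solution held 3.33 µM ATP (JNK2/3) or 2 µM ATP (JNK1). Reactions ran 30 min at room temperature and were stopped with glutathione SPA beads plus 40 mM ATP. IC50 is the concentration halving c-Jun phosphorylation versus control.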

c-Jun phosphorylation = experiment: LPS-induced c-Jun phosphorylation in spleen of mice (HTRF); assay type: in vivo, male C57/B16 mice; conditions: Mus musculus, po; 20 mg/kg p.o. 30 min before LPS 10 mg/kg i.p.; 1 hour after LPS; versus vehicle-treated animals; read-out: Percentage reduction in the level of P-c-Jun in spleen
Protocol: (§1) The studies were carried out in male C57/B16 mice. Compounds (20 mg/kg; p.o.) were administered 30 minutes before injection of lipopolysaccharide (LPS). LPS was administered intraperitoneally at a dose of 10 mg/kg. Animals were sacrificed 1 hour following LPS injection. Blood was collected into heparinized tubes for measurement of plasma TNFα levels and spleens were collected for the measurement of c-Jun phosphorylation. Plasma TNFα was measured using an ELISA kit purchased from R&D systems. Spleens were homogenised, extracted in high salt (250 mM NaCl) lysis buffer with phosphatase inhibitors and c-Jun phosphorylation was measured using HTRF. The suppressive effect of compounds was calculated as the percentage reduction of the TNFα level in plasma and P-c-Jun level in spleen as compared with the vehicle-treated animals.

TNFα = experiment: LPS-induced TNFα suppression in mice (plasma TNFα, ELISA); assay type: in vivo, male C57/B16 mice; conditions: Mus musculus, po; 20 mg/kg p.o. 30 min before LPS 10 mg/kg i.p.; 1 hour after LPS; versus vehicle-treated animals; read-out: Percentage reduction in the level of TNFα in plasma
Protocol: as §1

MOG (35-55)-induced EAE = experiment: MOG (35-55)-induced experimental autoimmune encephalomyelitis (EAE) in mice; assay type: in vivo, C57/B16J mice; conditions: 20 mg/kg, p.o., once daily, from appearance of symptoms
JNK1 = JNK1 (Homo sapiens, UniProt P45983); experiment: JNK1 SPA assay; assay type: biochemical; conditions: 2 μM ATP, GST-c-Jun substrate
Protocol: (§2) JNK1, JNK2, JNK3—SPA Assay
(§3) JNK1, JNK2, JNK3—SPA Assay • 1. Compound is dissolved in DMSO to a convenient concentration and this is diluted in 10% DMSO to a five times concentrate of the desired starting concentration (frequently 1:100). • 2. 10 μl of 500 mM EDTA is added to alternative wells of the Opti-plate row, which will receive kinase reaction plus DMSO. This creates the negative control. • 3. For the JNK2 and JNK3 assay, compounds are prepared in six 2-fold dilutions with water and each concentration is tested in duplicate. For the JNK1 assay compounds are prepared in four 5-fold dilutions with water which are tested in triplicate. Controls are treated identically. • 4. 20 μl per well of each compound concentration is transferred to an Opti-plate, in duplicate. • 5. 30 μl (JNK2/3 SPA) or 50 μl (JNK1 SPA) of substrate solution (25 mM HEPES pH 7.5, 10 mM magnesium acetate with 3.33 μM ATP (JNK2/3) or 2 μM ATP (JNK1), approximately 7.5 kBq [γ-^33P] ATP, GST-c-Jun, in water) is added to each well. • 6. 50 μl (JNK2/3 SPA) or 30 μl (JNK1 SPA) of kinase solution (JNK in 25 mM HEPES pH 7.5, 10 mM Mg Acetate) is added to each well.
(§4) • 7. The plate is incubated for 30 minutes at room temperature. • 8. […] Plates are sealed and incubated for 30 minutes at room temperature, centrifuged for 10 minutes at 2500 g and counted. • 10. […]

JNK2 = JNK2 (Homo sapiens, UniProt P45984); experiment: JNK2 SPA assay; assay type: biochemical; conditions: 3.33 μM ATP, GST-c-Jun substrate
Protocol: as §2, §3, §4

JNK2, sequence (P45984 whole entry, species assumed): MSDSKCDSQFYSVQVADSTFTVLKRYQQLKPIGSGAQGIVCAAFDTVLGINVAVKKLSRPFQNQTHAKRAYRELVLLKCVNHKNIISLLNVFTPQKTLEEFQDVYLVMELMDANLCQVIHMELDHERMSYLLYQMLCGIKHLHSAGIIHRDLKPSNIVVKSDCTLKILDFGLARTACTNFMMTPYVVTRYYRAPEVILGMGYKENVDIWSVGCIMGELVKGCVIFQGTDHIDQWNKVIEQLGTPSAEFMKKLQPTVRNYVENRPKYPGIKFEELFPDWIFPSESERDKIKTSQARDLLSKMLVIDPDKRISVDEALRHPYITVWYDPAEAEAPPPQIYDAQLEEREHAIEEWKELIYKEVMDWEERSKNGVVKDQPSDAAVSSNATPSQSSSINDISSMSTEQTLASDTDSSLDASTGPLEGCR
JNK1, sequence (P45983 whole entry, species assumed): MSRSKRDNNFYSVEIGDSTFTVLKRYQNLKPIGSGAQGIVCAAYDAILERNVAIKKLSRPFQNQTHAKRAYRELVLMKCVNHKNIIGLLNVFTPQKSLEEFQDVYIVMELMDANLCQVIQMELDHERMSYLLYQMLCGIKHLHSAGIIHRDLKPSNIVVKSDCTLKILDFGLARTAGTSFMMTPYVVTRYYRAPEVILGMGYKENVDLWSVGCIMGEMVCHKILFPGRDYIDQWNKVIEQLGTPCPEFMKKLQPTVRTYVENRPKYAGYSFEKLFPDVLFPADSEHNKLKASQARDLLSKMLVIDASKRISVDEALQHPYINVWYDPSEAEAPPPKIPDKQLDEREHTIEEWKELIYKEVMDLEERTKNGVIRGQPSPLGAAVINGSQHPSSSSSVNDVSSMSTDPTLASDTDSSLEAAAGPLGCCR
JNK3, sequence (P53779 whole entry, species assumed): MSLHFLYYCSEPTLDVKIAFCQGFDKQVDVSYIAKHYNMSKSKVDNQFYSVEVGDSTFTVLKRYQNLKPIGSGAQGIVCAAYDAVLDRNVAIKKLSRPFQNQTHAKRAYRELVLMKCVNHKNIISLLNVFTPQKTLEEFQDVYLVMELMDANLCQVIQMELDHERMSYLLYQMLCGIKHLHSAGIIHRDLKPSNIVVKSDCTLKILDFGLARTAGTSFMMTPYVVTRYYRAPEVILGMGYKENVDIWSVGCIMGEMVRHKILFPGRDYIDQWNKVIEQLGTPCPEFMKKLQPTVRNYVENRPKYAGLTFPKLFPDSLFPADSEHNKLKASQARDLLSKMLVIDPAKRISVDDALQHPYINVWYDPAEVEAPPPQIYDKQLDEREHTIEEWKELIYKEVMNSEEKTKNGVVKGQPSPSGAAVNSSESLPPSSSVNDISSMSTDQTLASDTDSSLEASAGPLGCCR

Compound: CN(C)c1ccc(-c2cnc3[nH]cc(-c4cn[nH]c4)c3c2)cc1 [A]
Gini coefficient, reference compounds, aromatic C(5) group (panel of 100 kinases): 0.3368

IC50 (JNK3): 80 nM
Compound: Cn1cc(-c2c[nH]c3ncc([C@H]4CC[C@H](N5CCOCC5)CC4)cc23)cn1 [Compound I-6, 4-((1r,4r)-4-(3-(1-methyl-1H-pyrazol-4-yl)-1H-pyrrolo[2,3-b]pyridin-5-yl)cyclohexyl)morpholine]
inhibition in vivo at 20 mg/kg (c-Jun phosphorylation): 41% | inhibition in vivo at 20 mg/kg (TNFα): 82% | total white matter area in the lumbar spinal cord (MOG (35-55)-induced EAE; FIG. 10): preservation | neuronal numbers in the ventral horn of the lumbar spinal cords (MOG (35-55)-induced EAE; FIG. 11): preservation | demyelination in the lumbar spinal cord (MOG (35-55)-induced EAE; FIG. 12): decrease

IC50 (JNK3): 62 nM
Compound: Cn1cc(-c2c[nH]c3ncc(C4C5CC6CC(C5)CC4C6)cc23)cn1 (stereo not drawn) [Compound I-154, 3-(1-Methyl-1H-pyrazol-4-yl)-5-tricyclo[3.3.1.1˜3,7˜]dec-2-yl-1H-pyrrolo[2,3-b]pyridine]
inhibition in vivo at 20 mg/kg (c-Jun phosphorylation): 33% | inhibition in vivo at 20 mg/kg (TNFα): 60%

Compound: CN1CCC(c2csc(-c3cnc4[nH]cc(-c5cnn(C)c5)c4c3)n2)CC1 [E]
Gini coefficient, reference compounds, aromatic C(5) group (panel of 100 kinases): 0.3757

Compound: CN(C)C(=O)c1nc(-c2c[nH]c3ncc(-c4ccccc4)cc23)cs1 [G]
Gini coefficient, reference compounds, aromatic C(5) group (panel of 100 kinases): 0.3501

Compound: CN1CCN(C(=O)c2nc(-c3c[nH]c4ncc(-c5ccc(N6CCN(C)CC6)cc5)cc34)cs2)CC1 [J]
Gini coefficient, reference compounds, aromatic C(5) group (panel of 100 kinases): 0.3286

IC50 (JNK1): 178 nM | IC50 (JNK2): 501 nM
Compound: CC1CCC(c2cnc3[nH]cc(-c4cnn(C)c4)c3c2)CC1 (stereo not drawn) [compound 3]

IC50 (JNK1): 191 nM | IC50 (JNK2): 245 nM
Compound: CN1CCN([C@H]2CC[C@H](c3cnc4[nH]cc(-c5cnn(C)c5)c4c3)CC2)CC1 [compound 25]
Gini coefficient, compounds (I), non-aromatic C(5) group (panel of 100 kinases): 0.6769
